Experimental data reported in ChEMBL document CHEMBL1135964, “Highly potent inhibitors of TNF-alpha production. Part 2: identification of drug candidates” (Bioorg Med Chem Lett, 2002).

What was measured:
Mus musculus [1] = assay: Tested for minimum effective dose in LPS-induced shock model in mice after intravenous administration at a dose of 5 mg / kg; survival rate=10/18; type: functional; conditions: read-out: MED
Rattus norvegicus [2] = assay: Tested for minimum effective dose in D-(+)-Galactosamine/ LPS-induced hepatitis model in rat after intravenous dosage of 1 g/ 7.5 ug/ 5 mL/kg; survival rate=7/18; type: functional; conditions: read-out: MED
[3] = Tested for the safety in rats reported as minimum lethal dose; mortality rate=0/3; type: ADME; conditions: rat, in vivo
Rattus norvegicus [4] = assay: Tested for the inhibition of Inhibitor of Tumor necrosis factor alpha production after intravenous administration to rat; type: functional; conditions: read-out: ID50 (the source's name)
Rattus norvegicus [5] = assay: Tested for the inhibition of umor necrosis factor alpha production after intravenous administration at the dosage of 30 mg/kg to rat; type: functional
Rattus norvegicus [6] = assay: Tested for the inhibition of Tumor necrosis factor alpha production after intravenous administration to rat; type: functional; conditions: read-out: ID50 (the source's name)
Mus musculus [7] = assay: Tested for the inhibition of Tumor necrosis factor alpha production after intravenous administration in mice; type: functional; conditions: read-out: ID50 (the source's name)
Mus musculus [8] = assay: Tested for the inhibition of Tumor necrosis factor alpha production after intravenous administration at the dosage of 10 mg/kg to mice; no activity was observed; type: functional
Rattus norvegicus [9] = assay: Tested for the inhibition of Tumor necrosis factor alpha production after intravenous administration at the dosage of 10 mg/kg to rat; type: functional; conditions: for inhibition in vivo at 10 mg/kg: Rattus norvegicus
Mus musculus [10] = assay: Tested for minimum effective dose in LPS-induced shock model in mice after intravenous administration at a dose of 5 mg / kg; survival rate=14/20; type: functional; conditions: read-out: MED
Rattus norvegicus [11] = assay: Tested for minimum effective dose in D-(+)-Galactosamine/ LPS-induced hepatitis model in rat after intravenous dosage of 1 g/ 7.5 ug/ 5 mL/kg; survival rate=6/18; type: functional; conditions: read-out: MED
Rattus norvegicus [12] = assay: Tested for minimum effective dose in D-(+)-Galactosamine/ LPS-induced hepatitis model in rat after intravenous dosage of 1 g/ 7.5 ug/ 5 mL/kg; survival rate=8/18; type: functional; conditions: read-out: MED
[13] = Tested for the safety in rats reported as minimum lethal dose; mortality rate=1/3; type: ADME; conditions: rat, in vivo

CCCCCCCC(=O)N[C@H](c1cccc(OC)c1)[C@H](C)OP(=O)([O-])[O-].[Na+].[Na+]
minimal effective dose (Mus musculus [1]): 0.1 mg/kg | minimal effective dose (Rattus norvegicus [2]): 0.3 mg/kg | MLD [3]: > 100 mg/kg | ED50 (Rattus norvegicus [4]): 0.03 mg/kg

CCCCCCCC(=O)N[C@@H](c1ccccc1)[C@@H](C)OP(=O)(O)O
inhibition in vivo at 30 mg/kg (Rattus norvegicus [5]): 5%

CCCCCCCC(=O)N[C@@H](c1cccc(OC)c1)[C@H](C)OP(=O)([O-])[O-].[Na+].[Na+]
ED50 (Rattus norvegicus [6]): 3.7 mg/kg

CCCCCCCC(=O)N[C@H](c1ccccc1)C1(OP(=O)([O-])[O-])CCC1.[Na+].[Na+]
ED50 (Mus musculus [7]): 9.5 mg/kg

CCCCCCCC(=O)N[C@@H](COP(=O)([O-])[O-])c1ccccc1.[Na+].[Na+]
ED50 (Rattus norvegicus [6]): 3 mg/kg

CCCCCCCC(=O)N[C@@H](CO)c1ccccc1
inhibition in vivo at 10 mg/kg (Mus musculus [8]): 14%

CCCCCCCC(=O)N[C@@H](c1ccccc1)[C@H](C)OP(=O)(O)O
inhibition in vivo at 30 mg/kg (Rattus norvegicus [5]): 17%

CCCCCCCC(=O)N[C@H](c1ccccc1)[C@H](CO)OP(=O)(O)O
inhibition in vivo at 10 mg/kg (Rattus norvegicus [9]): 42%

CCCCCCCC(=O)N(C)[C@@H](COP(=O)([O-])[O-])c1ccccc1.[Na+].[Na+]
ED50 (Rattus norvegicus [6]): 9.8 mg/kg

CCCCCCCC(=O)N[C@H](c1cccc(OC)c1)C(C)(C)OP(=O)(O)O
inhibition in vivo at 10 mg/kg (Rattus norvegicus [9]): 12%

CCCCCCOC(=O)N[C@H](c1cccc(OC)c1)[C@H](C)OP(=O)([O-])[O-].[Na+].[Na+]
minimal effective dose (Mus musculus [10]): 0.1 mg/kg | ED50 (Rattus norvegicus [6]): 0.02 mg/kg | minimal effective dose (Rattus norvegicus [11]): 0.1 mg/kg | MLD [3]: > 100 mg/kg

CCCCCCCC(=O)N[C@H](c1ccccc1)[C@@H](C)OP(=O)(O)O
inhibition in vivo at 30 mg/kg (Rattus norvegicus [5]): 23%

CCCCCCCC(=O)N[C@@H]1c2ccccc2C[C@@H]1OP(=O)([O-])[O-].[Na+].[Na+]
Inhibition (Rattus norvegicus [9]): 34%

CCCCCCCC(=O)N[C@H](c1ccccc1)[C@@H](OP(=O)(O)O)c1ccccc1
inhibition in vivo at 10 mg/kg (Rattus norvegicus [9]): 3%

CCCCCCCC(=O)N[C@H](c1cccc(OC)c1)[C@@H](C)OP(=O)(O)O
inhibition in vivo at 10 mg/kg (Rattus norvegicus [9]): -13%

CCCCCCCC(=O)N[C@@H](c1cccc(OC)c1)[C@@H](C)OP(=O)(O)O
inhibition in vivo at 10 mg/kg (Rattus norvegicus [9]): 38%

CCCCCCCC(=O)N[C@@H](COP(=O)([O-])[O-])c1cccc(OC)c1.[Na+].[Na+]
ED50 (Rattus norvegicus [6]): 0.26 mg/kg

CCCCCCCC(=O)N[C@H](c1ccccc1)[C@H](C)OP(=O)([O-])[O-].[Na+].[Na+]
ED50 (Rattus norvegicus [6]): 4.5 mg/kg

CCCCCCCC(=O)N[C@H](c1cccc(OC(C)C)c1)[C@H](C)OP(=O)([O-])[O-].[Na+].[Na+]
minimal effective dose (Mus musculus [1]): 0.3 mg/kg | ED50 (Rattus norvegicus [6]): 0.05 mg/kg | minimal effective dose (Rattus norvegicus [12]): 0.3 mg/kg | MLD [13]: 100 mg/kg

CCCCCCCC(=O)N[C@@H]1c2ccccc2C[C@H]1OP(=O)([O-])[O-].[Na+].[Na+]
ED50 (Rattus norvegicus [6]): 2.4 mg/kg
